PMC11314561, “Design and Synthesis of Novel Aminoindazole-pyrrolo[2,3-b]pyridine Inhibitors of IKKα That Selectively Perturb Cellular Non-Canonical NF-κB Signalling” (Molecules, 2024)
≈ marks a conversion by molar mass, not a printed value. Where two headings read alike, the source gives them in different places.

How the values were obtained:
IKKα = biological target: T1, IKKα (Homo sapiens, UniProt O15111); experiment: DELFIA kinase assay, IKKα; type: biochemical; conditions: DELFIA kinase assay
T1 sequence (O15111 1-745): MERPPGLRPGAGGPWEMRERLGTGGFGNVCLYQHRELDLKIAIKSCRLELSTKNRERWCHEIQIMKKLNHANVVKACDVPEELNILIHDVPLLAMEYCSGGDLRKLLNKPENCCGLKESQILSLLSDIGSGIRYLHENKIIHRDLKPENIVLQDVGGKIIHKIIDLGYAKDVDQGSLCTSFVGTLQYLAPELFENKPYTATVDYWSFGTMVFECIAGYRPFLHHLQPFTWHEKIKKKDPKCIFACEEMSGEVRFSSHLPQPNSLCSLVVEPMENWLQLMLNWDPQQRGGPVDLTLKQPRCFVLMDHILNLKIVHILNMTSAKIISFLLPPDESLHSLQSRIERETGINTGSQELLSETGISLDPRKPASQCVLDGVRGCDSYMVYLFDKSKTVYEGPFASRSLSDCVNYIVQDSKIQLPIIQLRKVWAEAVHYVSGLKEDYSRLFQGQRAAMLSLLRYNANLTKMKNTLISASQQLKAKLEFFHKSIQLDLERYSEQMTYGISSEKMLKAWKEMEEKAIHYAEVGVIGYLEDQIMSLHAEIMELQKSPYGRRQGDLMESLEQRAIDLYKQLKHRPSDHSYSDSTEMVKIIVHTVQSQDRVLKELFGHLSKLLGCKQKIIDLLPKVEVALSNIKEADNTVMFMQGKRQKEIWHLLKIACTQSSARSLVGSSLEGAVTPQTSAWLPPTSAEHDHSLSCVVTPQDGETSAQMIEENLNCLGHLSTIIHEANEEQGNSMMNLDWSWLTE
Excerpt: To examine the pyrrolo[2,3-b]pyridines as an alternative scaffold, we adopted the AIPP core because it had similar dimensions to SU909 (1), with HBD/HBA motifs positioned at the scaffold extremities to interact with both the hinge region and the G-loop wall of IKKα, a rationale we had previously proposed as the basis for imparting selectivity. A preliminary set of AIPP derivatives was designed and synthesised to explore its utility as an IKK-targeting scaffold, whilst incorporating additional functionality through which to introduce selectivity for the IKKα isoform (2–4; Figure 3). This was achieved by initially adopting two different approaches: either appending a hydrophobic moiety to the pyrrolo[2,3-b]pyridine motif as a fused form to afford the tricyclic derivatives 2 and 3, or as a phenyl substituent to introduce flexibility with respect to the central pyrrolo[2,3-b]pyridine moiety in 4. When assessed against IKKα and IKKβ using our in-house DELFIA kinase assay […] The pyrrolo[2,3-b]pyridine was bound to the hinge region in the classical HBA/HBD motif with the GK+3 amide backbone, whilst the aminoindazole projected towards the top of the pocket to interact with the G-loop (Figure 4A). […] In both isoforms, the 2-phenyl moiety protruded away from the hinge towards the exposed solvent area.
(§1) IKKα and IKKβ inhibitory activity were determined using a dissociation-enhanced ligand fluorescent immunoassay (DELFIA) based on the protocol of HTScan™ IKKβ Kinase Assay (Cell Signaling Technology, Danvers, MA, USA) as described in [24].

IKKβ = biological target: T2, IKKβ (Homo sapiens, UniProt O14920); experiment: DELFIA kinase assay, IKKβ; type: biochemical
T2 sequence (O14920 1-756): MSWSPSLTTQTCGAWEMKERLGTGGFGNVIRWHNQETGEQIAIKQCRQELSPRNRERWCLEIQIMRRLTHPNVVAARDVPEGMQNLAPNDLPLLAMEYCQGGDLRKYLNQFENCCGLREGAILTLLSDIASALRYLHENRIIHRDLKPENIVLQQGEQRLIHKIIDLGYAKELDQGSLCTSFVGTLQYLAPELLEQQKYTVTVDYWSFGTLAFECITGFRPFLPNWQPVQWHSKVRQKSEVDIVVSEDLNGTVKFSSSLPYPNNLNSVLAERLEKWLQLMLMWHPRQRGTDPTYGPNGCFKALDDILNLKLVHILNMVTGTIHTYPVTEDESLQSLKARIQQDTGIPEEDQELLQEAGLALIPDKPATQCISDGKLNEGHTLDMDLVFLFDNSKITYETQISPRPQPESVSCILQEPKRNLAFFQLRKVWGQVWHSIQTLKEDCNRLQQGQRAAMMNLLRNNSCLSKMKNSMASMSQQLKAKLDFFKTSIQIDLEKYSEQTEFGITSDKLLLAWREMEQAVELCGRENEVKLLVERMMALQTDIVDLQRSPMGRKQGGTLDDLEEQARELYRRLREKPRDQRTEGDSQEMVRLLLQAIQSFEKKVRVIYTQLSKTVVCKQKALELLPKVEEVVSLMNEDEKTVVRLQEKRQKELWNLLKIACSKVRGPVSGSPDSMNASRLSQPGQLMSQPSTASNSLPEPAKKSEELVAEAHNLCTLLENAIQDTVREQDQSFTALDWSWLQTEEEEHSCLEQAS
Description: as §1

Turbidimetric solubility = type: physicochemical; conditions: pH 7.4, aqueous buffer, kinetic from dmso stock, 0.01 M phosphate-buffered saline pH7.4
Description: Pharmacokinetic studies were contracted to Sygnature Discovery Limited. Turbidimetric Solubility was determined by diluting compound solutions (1 μM, 3 μM, 10 μM, 30 μM, 100 μM) prepared in DMSO into 0.01 M phosphate-buffered saline pH7.4. Turbidimetry was used as the endpoint by measuring absorbance at 620 nm.

Ki (IKKα) [nM] | Ki (IKKβ; read-out: Ki Values IKKβ) [nM] | solubility (Turbidimetric solubility) [µM] | SMILES | Ki (IKKβ; Ki Values IKKβ) [nM]
24 | 215 | – | CN1CCN(C(=O)c2cccc(-c3cc4c(-c5ccc6[nH]nc(N)c6c5)ccnc4[nH]3)c2)CC1 [Compound 5v] | –
5 | 40 | – | COc1cccc(-c2cc3c(-c4ccc5[nH]nc(N)c5c4)ccnc3[nH]2)c1 [Compound 5e] | –
3 | 109 | – | CS(=O)(=O)Nc1cccc(-c2cc3c(-c4ccc5[nH]nc(N)c5c4)ccnc3[nH]2)c1 [Compound 5j] | –
35 | 470 | – | Nc1n[nH]c2ccc(-c3ccnc4[nH]c(-c5cccc(CNc6ccccc6)c5)cc34)cc12 [Compound 5p] | –
12 | 22 | – | Nc1n[nH]c2ccc(-c3ccnc4[nH]c(-c5ccc(OCc6ccccc6)nc5)cc34)cc12 [Compound 6d] | –
6 | 25 | – | COCCC(=O)Nc1cccc(-c2cc3c(-c4ccc5[nH]nc(N)c5c4)ccnc3[nH]2)c1 [Compound 5l] | –
15 | 107 | – | COCCNC(=O)c1cccc(-c2cc3c(-c4ccc5[nH]nc(N)c5c4)ccnc3[nH]2)c1 [Compound 5m] | –
9 | 29 | – | Nc1n[nH]c2ccc(-c3ccnc4[nH]c(-c5cccc(OCCN6CCOCC6)c5)cc34)cc12 [Compound 5y] | –
3 | 36 | – | CS(=O)(=O)c1cccc(-c2cc3c(-c4ccc5[nH]nc(N)c5c4)ccnc3[nH]2)c1 [Compound 5k] | –
19 | 458 | – | CC(C)COc1cccc(-c2cc3c(-c4ccc5[nH]nc(N)c5c4)ccnc3[nH]2)c1 [Compound 5o] | –
21 | 1550 | 6.5 (≈ 2.81 µg/mL) | Nc1n[nH]c2ccc(-c3ccnc4[nH]c(-c5cncc(OCc6ccccc6)c5)cc34)cc12 [Compound 6e] | –
25 | 2300 | 2 (≈ 0.865 µg/mL) | Nc1n[nH]c2ccc(-c3ccnc4[nH]c(-c5cc(OCc6ccccc6)ccn5)cc34)cc12 [Compound 6j] | –
33 | 503 | 3.75 (≈ 1.69 µg/mL) | Nc1n[nH]c2ccc(-c3ccnc4[nH]c(-c5cc(F)nc(CNc6ccccc6)c5)cc34)cc12 [Compound 6f] | –
8 | 168 | – | Nc1n[nH]c2ccc(-c3ccnc4[nH]c(-c5cccc(C(=O)O)c5)cc34)cc12 [Compound 5h] | –
4 | 42 | – | Nc1n[nH]c2ccc(-c3ccnc4[nH]c(-c5ccccc5O)cc34)cc12 [Compound 5a] | –
10 | 191 | – | Nc1n[nH]c2ccc(-c3ccnc4[nH]c(-c5cccc(CNC6CCCC6)c5)cc34)cc12 [Compound 5n] | –
3 | 5 | – | Nc1n[nH]c2ccc(-c3ccnc4[nH]c5ccccc5c34)cc12 [Compound 3] | –
5 | 159 | – | NC(=O)c1cccc(-c2cc3c(-c4ccc5[nH]nc(N)c5c4)ccnc3[nH]2)c1 [Compound 5i] | –
4 | 67 | – | Cc1ccc(S(=O)(=O)Nc2ccc(-c3cc4c(-c5ccc6[nH]nc(N)c6c5)ccnc4[nH]3)cc2)cc1 [Compound 5u] | –

Ki (IKKα) [nM] | Ki (IKKβ; read-out: Ki Values IKKβ) [nM] | solubility (Turbidimetric solubility) [µM] | SMILES | Ki (IKKβ; Ki Values IKKβ) [nM]
59 | 5030 | – | Nc1n[nH]c2ccc(-c3ccnc4[nH]c(-c5cc(F)cc(OCc6ccccc6)c5)cc34)cc12 [Compound 6a] | –
25 | 149 | – | Nc1n[nH]c2ccc(-c3ccnc4[nH]c(-c5cccc(S(=O)(=O)N6CCOCC6)c5)cc34)cc12 [Compound 5aa] | –
57 | 1060 | – | Nc1n[nH]c2ccc(-c3ccnc4[nH]c(-c5ccccc5OCc5ccccc5)cc34)cc12 [Compound 5q] | –
2 | 77 | – | Nc1n[nH]c2ccc(-c3ccnc4[nH]c5c(c34)CCCC5)cc12 [Compound 2, 5-(6,7,8,9-Tetrahydro-5H-pyrido[2,3-b]indol-4-yl)-1H-indazol-3-amine] | –
10 | 1050 | – | Cc1ccc(S(=O)(=O)Nc2cccc(-c3cc4c(-c5ccc6[nH]nc(N)c6c5)ccnc4[nH]3)c2)cc1 [Compound 5t] | –
16 | 402 | – | Nc1n[nH]c2ccc(-c3ccnc4[nH]c(-c5cccc(OCc6ccccn6)c5)cc34)cc12 [Compound 5w] | –
29 | 1210 | 3.75 (≈ 1.95 µg/mL) | COCCOCc1cc(OCc2ccccc2)cc(-c2cc3c(-c4ccc5[nH]nc(N)c5c4)ccnc3[nH]2)c1 [Compound 6b] | –
8 | 86 | – | CCOc1ccccc1-c1cc2c(-c3ccc4[nH]nc(N)c4c3)ccnc2[nH]1 [Compound 5b] | –
127 | 3000 | – | Nc1n[nH]c2ccc(-c3ccnc4[nH]c(-c5cc(F)nc(SCc6ccccc6)c5)cc34)cc12 [Compound 6i] | –
16 | 189 | – | Nc1n[nH]c2ccc(-c3ccnc4[nH]c(-c5ccc(OCc6ccccc6)cc5)cc34)cc12 [Compound 5s] | –
43 | 166 | – | COc1ccc(COc2cccc(-c3cc4c(-c5ccc6[nH]nc(N)c6c5)ccnc4[nH]3)c2)cc1 [Compound 5z] | –
8 | 122 | – | Nc1n[nH]c2ccc(-c3ccnc4[nH]c(-c5cccc(OCC6CCOCC6)c5)cc34)cc12 [Compound 5x] | –
3 | 32 | – | COc1cc(F)cc(-c2cc3c(-c4ccc5[nH]nc(N)c5c4)ccnc3[nH]2)c1 [Compound 5g] | –
42 | 1600 | – | Nc1n[nH]c2ccc(-c3ccnc4[nH]c(-c5ccnc(OCCc6ccccc6)c5)cc34)cc12 [Compound 6l] | –
5 | 1180 | 2 (≈ 0.897 µg/mL) | Nc1n[nH]c2ccc(-c3ccnc4[nH]c(-c5ccnc(SCc6ccccc6)c5)cc34)cc12 [Compound 6h] | –
5 | 28 | – | Nc1cccc(-c2cc3c(-c4ccc5[nH]nc(N)c5c4)ccnc3[nH]2)c1 [Compound 5c] | –
5 | 26 | – | Nc1n[nH]c2ccc(-c3ccnc4[nH]c(-c5cccc(O)c5)cc34)cc12 [Compound 5d] | –
4 | 42 | – | Nc1n[nH]c2ccc(-c3ccnc4[nH]c(-c5cc(O)cc(F)c5)cc34)cc12 [Compound 5f] | –

SMILES | Ki (IKKα) [nM] | Ki (IKKβ; read-out: Ki Values IKKβ) [nM] | solubility (Turbidimetric solubility) [µM] | Ki (IKKβ; Ki Values IKKβ) [nM]
COCCNc1cc(OCc2ccccc2)cc(-c2cc3c(-c4ccc5[nH]nc(N)c5c4)ccnc3[nH]2)c1 [Compound 6c] | 26 | – | 2 (≈ 1.01 µg/mL) | 1530
